According to patent US20240400546A1, “COMPOUNDS AND USES THEREOF” (JANSSEN PHARMACEUTICA NV, priority 2016, published 2024):

Biological target: T1, Ole1 (Saccharomyces cerevisiae, UniProt P21147)
T1 construct: expressed in transfected cells; host or cells: S. cerevisiae ole1Δ strain (W303 pdr1Δ pdr3Δ background), plasmid pRS316 with TDH3 promoter and CYC1 terminator
T1 sequence (P21147 1-510): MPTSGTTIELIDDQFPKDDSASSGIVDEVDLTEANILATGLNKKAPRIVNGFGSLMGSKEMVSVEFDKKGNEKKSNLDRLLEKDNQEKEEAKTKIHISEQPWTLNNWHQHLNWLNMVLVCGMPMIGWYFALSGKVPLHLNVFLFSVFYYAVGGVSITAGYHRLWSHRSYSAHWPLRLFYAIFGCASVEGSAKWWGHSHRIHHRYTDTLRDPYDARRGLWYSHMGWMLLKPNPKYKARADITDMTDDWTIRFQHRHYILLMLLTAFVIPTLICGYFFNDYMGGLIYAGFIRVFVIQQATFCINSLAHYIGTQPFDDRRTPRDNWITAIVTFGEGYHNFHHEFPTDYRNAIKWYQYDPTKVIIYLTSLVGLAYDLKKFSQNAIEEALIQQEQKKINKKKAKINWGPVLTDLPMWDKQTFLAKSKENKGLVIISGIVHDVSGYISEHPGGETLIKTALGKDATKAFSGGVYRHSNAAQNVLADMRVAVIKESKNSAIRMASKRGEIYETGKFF
Experiment: Growth inhibition of yeast expressing Ole1 as sole desaturase
Type: cell-based
Conditions: FIG. 6
Protocol: (§1) Strain ole1Δ (yeast ole1 deletion mutant) was constructed by deleting OLE1 with NAT-MX6 in BY4741, amplifying the deletion cassette from the genomic DNA of the resulting strain with primers flanking the ORF by 1000 bp upstream and downstream, transforming the resulting deletion cassette into W303 pdr1Δ pdr3Δ, and plating transformants on YPD media containing G418 (200 μg/mL) and nourseothricin (100 μg/mL) with 0.01% TWEEN®-20 and 0.5 mM oleic and palmitoleic acids.
(§2) The coding sequence of yeast OLE1 was also cloned into this plasmid). These clones were then transformed into the ole1Δ strain and plated on CSM-Ura media (CSM lacking uracil) with 2% glucose (w/v) and independent colonies were isolated and amplified.
(§3) All compound profiling experiments were performed using the same basic protocol. Different genetic backgrounds (e.g., gene deletions) or conditions (e.g., addition of oleic and palmitoleic acid) were replaced as indicated below.
(§4) Yeast were cultured using standard techniques in complete synthetic media (CSM) and yeast nitrogen base supplemented with 2% (w/v) carbon source (glucose, raffinose, or galactose) to regulate the expression of the toxic disease protein. An initial starter culture was inoculated in 3 mL CSM-Glucose media and incubated overnight in a 30° C. shaker incubator (225 rpm). Saturated morning cultures were then diluted 1:20 in fresh CSM-Raffinose media and grown for 6 h to an OD600 (optical density) of ˜0.4-0.8 at 30° C. with shaking.
(§5) Compound administration was performed in two separate steps. First, 15 μL of CSM-Galactose (induces expression of toxic protein) was dispensed into clear 384 well assay plates using a MULTIDROP™ Combi reagent dispenser. […] The cultures described above were then diluted to a 2× concentration (0.03 and 0.08 for alpha-synuclein and ApoE, final OD600 of 0.015 and 0.04) in CSM-Galactose. For wild-type and Ole1/SCD1/SCD5 plasmid-containing strains, the 2× cell density was 0.02. […] For 96-well assays (FIGS. 1A and 1B), compound dilutions in DMSO were generated in 96 well plates and 1 μL was manually pipetted into 96 well clear bottom assay plates.
(§6) For experiments using a plasmid-borne copy of Ole1, SCD1, or SCD5 (FIGS. 3B, 6, and 7), media lacking uracil (SX-Ura, where X is glucose, raffinose, or galactose), was used for all steps of the compound profiling protocol to ensure its maintenance throughout the assay.
(§7) After yeast delivery, assay plates were incubated under humidified conditions at 30° C. for 24 to 40 h. ApoE4 rescue experiments were stopped at 24 h, aSyn experiments at 40 h, Ole1 at 24 h, and SCD1/SCD5 at 40 h. The growth of yeast was monitored by reading the OD600 of each well using a microplate reader (Perkin Elmer EnVision™).

Which “Sensitivity of yeast expressing OLE1 to known SCD1/SCD5 inhibitors” value (“Sensitivity … to known SCD1/SCD5 inhibitors” for short) does the source give for `O=C(O)Cn1nnc(-c2cc(N3CCC(Oc4cc(F)ccc4Br)CC3)no2)n1` [MK-8245, reference compound] here?
Its value is “resistant”.

`CNC(=O)c1cccc(NC(=O)N2CCC(Oc3ccccc3Cl)CC2)c1` [Compound A939572, reference compound] was tested. Which “Sensitivity … to known SCD1/SCD5 inhibitors” value did it give?
Its value is “resistant”.

`Cc1nnc(-c2ccc(N3CCC(Oc4ccccc4C(F)(F)F)CC3)nn2)s1` [MF-438, reference compound] was tested. Which “Sensitivity … to known SCD1/SCD5 inhibitors” value did it give?
The value was “resistant”.

Which “Sensitivity … to known SCD1/SCD5 inhibitors” value does the source give for `Cc1nnc(-c2ccc(N3CCC(Oc4cc(F)ccc4Cl)CC3)nn2)o1` [CAY10566, reference compound] here?
Its value is “resistant”.

Same assay, conditions: yeast expressing Ole1 as sole desaturase

How did the “OLE1 % Max Inhibition” value turn out when `Cc1nn(C)c2cc(-c3noc(C4CCN(C(=O)OC(C)(C)C)CC4)n3)ccc12` [Compound 300] was run?
The value was 79.7%.

With `COc1ccc(-c2noc(C3CCN(C(=O)[C@H]4CC(=O)N(c5ccc(C)c(C)c5)C4)CC3)n2)cc1OC` (single isomer, unassigned) [Compound 67] as the compound, how does the “OLE1 % Max Inhibition” value read?
Its value is 85.79%.

With `COc1ccc(-c2noc(C3CCN(C(=O)[C@H]4CC(=O)N(c5ccccc5)C4)CC3)n2)cc1OC` [Compound 65] as the compound, how does the “OLE1 % Max Inhibition” value read?
The value was 4.02%.

For `Cc1nn(C)c2cc(-c3nsc(C4CCN(C(=O)CNC(=O)c5cccc(C#N)c5)CC4)n3)ccc12` [Compound 322], which “OLE1 % Max Inhibition” value is on record?
Its value is 9.0%.

`COc1ccc(-c2noc(C3CCN(C(=O)[C@@H]4CC(=O)N(c5ccccc5)C4)CC3)n2)cc1OC` [Compound 66] was tested. Which “OLE1 % Max Inhibition” value did it give?
The value was 99.71%.

Biological target: T2, SCD1 (Homo sapiens, UniProt O00767)
T2 construct: host or cells: S. cerevisiae ole1Δ strain, plasmid pRS316 with TDH3 promoter and CYC1 terminator
T2 sequence (O00767 1-359): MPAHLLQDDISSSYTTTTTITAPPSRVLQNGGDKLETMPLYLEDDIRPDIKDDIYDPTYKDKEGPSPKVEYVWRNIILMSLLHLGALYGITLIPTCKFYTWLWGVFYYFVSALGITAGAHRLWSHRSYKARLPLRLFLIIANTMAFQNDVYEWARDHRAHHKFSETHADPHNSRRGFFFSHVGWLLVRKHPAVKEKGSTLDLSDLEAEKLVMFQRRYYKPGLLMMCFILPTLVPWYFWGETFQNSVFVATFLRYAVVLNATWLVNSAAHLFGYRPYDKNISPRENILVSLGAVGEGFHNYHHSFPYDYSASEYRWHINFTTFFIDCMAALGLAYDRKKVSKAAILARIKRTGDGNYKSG
Experiment: Growth inhibition of humanized yeast expressing SCD1 as sole desaturase
Type: cell-based
Conditions: FIG. 6
Method in brief: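 ole1Δ yeast (W303 pdr1Δ pdr3Δ background) carried plasmid-borne human SCD1, human SCD5 or yeast Ole1 as the sole desaturase and were grown in uracil-lacking galactose medium in 384-well plates. Starting 2× density was OD600 0.02, with incubation at 30 °C. Growth was read as OD600 at 24 h for Ole1 and at 40 h for SCD1 and SCD5.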

Which “half-maximal inhibitory concentration (IC50), SCD1 humanized strain” value does the source give for `CNC(=O)c1cccc(NC(=O)N2CCC(Oc3ccccc3Cl)CC2)c1` [Compound A939572, reference compound] here?
The value was “low nanomolar”.

With `Cc1nnc(-c2ccc(N3CCC(Oc4ccccc4C(F)(F)F)CC3)nn2)s1` [MF-438, reference compound] as the compound, how does the “half-maximal inhibitory concentration (IC50), SCD1 humanized strain” value read?
Its value is “low nanomolar”.

For `Cc1nnc(-c2ccc(N3CCC(Oc4cc(F)ccc4Cl)CC3)nn2)o1` [CAY10566, reference compound], which “half-maximal inhibitory concentration (IC50), SCD1 humanized strain” value is on record?
The value was “low nanomolar”.

Same assay, conditions: humanized yeast expressing SCD1

For `COc1ccc(-c2noc(C3CCN(C(=O)[C@H]4CC(=O)N(c5ccc(C)c(C)c5)C4)CC3)n2)cc1OC` (single isomer, unassigned) [Compound 67], which “SCD1 % Max Inhibition” value is on record?
The value was 54.45%.

What does the source list for `COc1ccc(-c2noc(C3CCN(C(=O)[C@H]4CC(=O)N(c5ccccc5)C4)CC3)n2)cc1OC` [Compound 65]?
IC50: > 45 µM; SCD1 % Max Inhibition: 83.43%

Which IC50 does the source give for `COc1ccc(-c2noc(C3CCN(C(=O)[C@@H]4CC(=O)N(c5ccccc5)C4)CC3)n2)cc1OC` [Compound 66] here?
Its IC50 is greater than 45 µM.

What about the “SCD1 % Max Inhibition” value of the same compound?
The value was 94.04%.

Same assay, conditions: humanized yeast expressing human SCD1

Which IC50 does the source give for `Cc1nn(C)c2cc(-c3noc(C4CCN(C(=O)OC(C)(C)C)CC4)n3)ccc12` [Compound 300] here?
Its IC50 is greater than 45 µM.

What about the “SCD1 % Max Inhibition” value of the same compound?
The value was 78.1%.

What does the source list for `Cc1nn(C)c2cc(-c3nsc(C4CCN(C(=O)CNC(=O)c5cccc(C#N)c5)CC4)n3)ccc12` [Compound 322]?
IC50: > 45 µM; SCD1 % Max Inhibition: 73.6%

Biological target: T3, SCD5 (Homo sapiens, UniProt Q86SK9)
T3 construct: host or cells: S. cerevisiae ole1Δ strain, plasmid pRS316 with TDH3 promoter and CYC1 terminator
T3 sequence (Q86SK9 1-330): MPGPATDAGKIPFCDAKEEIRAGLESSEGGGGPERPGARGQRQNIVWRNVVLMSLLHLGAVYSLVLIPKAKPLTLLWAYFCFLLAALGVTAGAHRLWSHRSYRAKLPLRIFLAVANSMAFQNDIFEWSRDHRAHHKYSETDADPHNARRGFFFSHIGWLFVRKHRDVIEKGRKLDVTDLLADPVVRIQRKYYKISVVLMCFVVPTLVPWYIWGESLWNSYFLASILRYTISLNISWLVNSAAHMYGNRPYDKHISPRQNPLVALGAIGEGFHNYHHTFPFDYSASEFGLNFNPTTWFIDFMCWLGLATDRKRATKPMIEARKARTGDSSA
Experiment: Growth inhibition of humanized yeast expressing SCD5 as sole desaturase
Type: cell-based
Conditions: FIG. 6
Protocol: as §1, §2, §3, §4, §5, §6, §7

How did the “half-maximal inhibitory concentration (IC50), SCD5 humanized strain” value turn out when `O=C(O)Cn1nnc(-c2cc(N3CCC(Oc4cc(F)ccc4Br)CC3)no2)n1` [MK-8245, reference compound] was run?
The value was “low nanomolar”.

How did the “half-maximal inhibitory concentration (IC50), SCD5 humanized strain” value turn out when `CNC(=O)c1cccc(NC(=O)N2CCC(Oc3ccccc3Cl)CC2)c1` [Compound A939572, reference compound] was run?
Its value is “low nanomolar”.

`Cc1nnc(-c2ccc(N3CCC(Oc4ccccc4C(F)(F)F)CC3)nn2)s1` [MF-438, reference compound] was tested. Which “half-maximal inhibitory concentration (IC50), SCD5 humanized strain” value did it give?
The value was “low nanomolar”.

With `Cc1nnc(-c2ccc(N3CCC(Oc4cc(F)ccc4Cl)CC3)nn2)o1` [CAY10566, reference compound] as the compound, how does the “half-maximal inhibitory concentration (IC50), SCD5 humanized strain” value read?
The value was “low nanomolar”.

Same assay, conditions: humanized yeast expressing SCD5

With `COc1ccc(-c2noc(C3CCN(C(=O)[C@H]4CC(=O)N(c5ccc(C)c(C)c5)C4)CC3)n2)cc1OC` (single isomer, unassigned) [Compound 67] as the compound, how does the “SCD5 % Max Inhibition” value read?
The value was 4.32%.

Which results are given for `COc1ccc(-c2noc(C3CCN(C(=O)[C@H]4CC(=O)N(c5ccccc5)C4)CC3)n2)cc1OC` [Compound 65]?
IC50: > 45 µM; SCD5 % Max Inhibition: 73.43%

Which results are given for `COc1ccc(-c2noc(C3CCN(C(=O)[C@@H]4CC(=O)N(c5ccccc5)C4)CC3)n2)cc1OC` [Compound 66]?
IC50: > 45 µM; SCD5 % Max Inhibition: 19.53%

Same assay, conditions: humanized yeast expressing human SCD5

With `Cc1nn(C)c2cc(-c3noc(C4CCN(C(=O)OC(C)(C)C)CC4)n3)ccc12` [Compound 300] as the compound, how does the IC50 read?
The IC50 was greater than 45 µM.

What about the “SCD5 % Max Inhibition” value of the same compound?
Its value is 36.0%.

Which results are given for `Cc1nn(C)c2cc(-c3nsc(C4CCN(C(=O)CNC(=O)c5cccc(C#N)c5)CC4)n3)ccc12` [Compound 322]?
IC50: > 45 µM; SCD5 % Max Inhibition: 29.8%
